Source: patent publication US12630515B2, “Small molecule prostagladin transport inhibitors” (ALBERT EINSTEIN COLLEGE OF MEDICINE, priority 2019, dated 2026)

Target: T1, rat PGT (Rattus norvegicus, UniProt Q00910)
T1 construct: expressed in transfected cells
Assay: PGT inhibition: [3H]PGE2 uptake in MDCK cells stably transfected with rat PGT
Type: cell-based
Details: room temperature
Description: MDCK cells stably transfected with rat PGT ae seeded at 15-20% confluence on 96-well deepwell plates. The day on which the cells are seeded is considered day 1. PGE2 uptake experiments are conducted on day 4. All of the PGE2 uptake experiments are conducted at room temperature. On day 4, cells are washed twice with Waymouth buffer (135 mM NaCl, 13 mM H-Hepes, 13 mM Na-Hepes, 2.5 mM CaCl2, 1.2 mM MgCl2, 0.8 mM MgSO4, 5 mM KCl, and 28 mM D-glucose). Then 200 μL of Waymouth buffer containing [^3H]PGE2 (available from Perkin Elmer) is added to each well. At the designed time, the uptake of [^3H]PGE2 is stopped by aspiration of uptake buffer; followed by immediate washing twice with 500 μL of chilled Waymouth buffer. Cells are then lysed with 100 μL lysis buffer containing 0.25% SDS and 0.05 N NaOH. 1.5 mL of scintillation solution is added to each well, and intracellular [^3H]PGE2 is counted via a Beta Counter.
For preliminary testing of the compounds, 20 μL of Waymouth buffer containing the compound is added to each well; this was immediately followed by the addition of 180 μL of Waymouth buffer containing [^3H]PGE2. In each well, the total volume of uptake medium is 200 μL. Test compounds are first dissolved in organic solvent, such as EtOH, and then diluted in Waymouth buffer. The percent inhibition of [^3H]PGE2 uptake by compounds is calculated as [(uptakevehicle−uptakeinhibitor)÷(uptakevehicle)]×100.
To determine IC50 of each compound, Waymouth buffer containing various concentrations of the compound is added to each well; immediately followed by the addition of 180 μL of Waymouth buffer containing [^3H]PGE2. IC50 was calculated by fitting the following equation. y=m1-m1*(m0/(m2+m0)).

## CCC(CC)(CCC(=O)O)c1csc(Nc2ccccc2Cl)n1 [Cmp. 8, 4-[2-(2-chloroanilino)thiazol-4-yl]-4-ethyl-hexanoic acid]
  IC50: < 10000 nM

## CCC(CC)(CCC(=O)O)c1cncc(Nc2ccc(F)cc2F)n1 [Cmp. 18, 4-[6-(2,4-difluoroanilino)pyrazin-2-yl]-4-ethyl-hexanoic acid]
  IC50: < 1000 nM

## CCOC(=O)C(CC)(CCC(=O)O)c1cncc(Nc2ccc(O)c(F)c2)n1 (racemic) [compound 37, 4-(ethoxycarbonyl)-4-(6-((3-fluoro-4-hydroxyphenyl)amino)pyrazin-2-yl)hexanoic acid]
  IC50: < 1000 nM

## CCC(CC)(CCC(=O)O)c1cncc(Nc2ccccc2Cl)n1 [Cmp. 28, 4-[6-(2-chloroanilino)pyrazin-2-yl]-4-ethyl-hexanoic acid]
  IC50: < 1000 nM

## CCOC(=O)C(CC)(CCC(=O)O)c1nc(Nc2ccccc2Cl)sc1Cl (racemic) [Cmp. 27 (RS), 4-[5-chloro-2-(2-chloroanilino)thiazol-4-yl]-4-ethoxycarbonyl-hexanoic acid]
  IC50: < 1000 nM

## CCC(CC)(CCC(=O)O)c1cncc(Nc2cc(F)c(F)cc2F)n1 [Cmp. 29, 4-ethyl-4-[6-(2,4,5-trifluoroanilino)pyrazin-2-yl]hexanoic acid]
  IC50: < 1000 nM

## CCC(CC)(CCC(=O)O)c1coc(Nc2ccc(C)cc2)n1 [compound 32, 4-ethyl-4-(2-(p-tolylamino)oxazol-4-yl)hexanoic acid]
  IC50: < 100000 nM

## CCOC(=O)C(CC)(CCC(=O)O)c1cncc(Nc2ccc(F)cc2F)n1 (racemic) [Cmp. 11, 4-[6-(2,4-difluoroanilino)pyrazin-2-yl]-4-ethoxycarbonyl-hexanoic acid]
  IC50: < 1000 nM

## CCOC(=O)C(CC)(CCC(=O)O)c1nc(Nc2ccc(F)cc2F)sc1C (racemic) [compound 34, 4-(2-((2,4-difluorophenyl)amino)-5-methylthiazol-4-yl)-4-(ethoxycarbonyl)hexanoic acid]
  IC50: < 10000 nM

## CCOC(=O)C(CC)(CCC(=O)O)c1cncc(Nc2cc(F)ccc2F)n1 (racemic) [Cmp. 20, 4-[6-(2,5-difluoroanilino)pyrazin-2-yl]-4-ethoxycarbonyl-hexanoic acid]
  IC50: < 1000 nM

## CCOC(=O)C(CC)(CCC(=O)O)c1cncc(Nc2ccc(C)cc2)n1 (racemic) [Cmp. 5, 4-ethoxycarbonyl-4-[6-(4-methylanilino)pyrazin-2-yl]hexanoic acid]
  IC50: < 10000 nM

## CCOC(=O)C(CC)(CCC(=O)O)c1nc(Nc2ccc(Cl)cc2Cl)sc1Cl (racemic) [compound 40, 4-(5-chloro-2-((2,4-dichlorophenyl)amino)thiazol-4-yl)-4-(ethoxycarbonyl)hexanoic acid]
  IC50: < 1000 nM

## CCOC(=O)C(CC)(CCC(=O)O)c1nc(Nc2ccc(Cl)cc2Cl)sc1C (racemic) [Cmp. 23, 4-[2-(2,4-dichloroanilino)-5-methyl-thiazol-4-yl]-4-ethoxycarbonyl-hexanoic acid]
  IC50: < 1000 nM

## CCC(CC)(CCC(=O)O)c1nc(Nc2ccc(F)cc2F)sc1C [Cmp. 21, 4-[2-(2,4-difluoroanilino)-5-methyl-thiazol-4-yl]-4-ethyl-hexanoic acid]
  IC50: < 1000 nM

## CCc1ncc(Nc2ccc(F)cc2F)nc1C(CC)(CC)CCC(=O)O [Cmp. 19, 4-[6-(2,4-difluoroanilino)-3-ethyl-pyrazin-2-yl]-4-ethyl-hexanoic acid]
  IC50: < 1000 nM

## CCOC(=O)C(CC)(CCC(=O)O)c1ccnc(Nc2ccc(C)cc2)n1 (stereo not drawn) [Cmp. 13, 4-ethoxycarbonyl-4-[2-(4-methylanilino)pyrimidin-4-yl]hexanoic acid]
  IC50: < 10000 nM

## CCC(CCC(=O)O)(C(=O)OCC(C)C)c1cncc(Nc2ccc(C)cc2)n1 (racemic) [compound 35, 4-(isobutoxycarbonyl)-4-(6-(p-tolylamino)pyrazin-2-yl)hexanoic acid]
  IC50: < 10000 nM

## CCC(CC)(CCC(=O)O)c1csc(Nc2ccccc2OC)n1 (racemic) [Cmp. 7, 4-ethyl-4-[2-(2-methoxyanilino)thiazol-4-yl]hexanoic acid]
  IC50: < 10000 nM

## CCC(CC)(CCC(=O)O)c1csc(Nc2ccc(C(F)(F)F)cc2)n1 [compound 31, 4-ethyl-4-(2-((4-(trifluoromethyl)phenyl)amino)thiazol-4-yl)hexanoic acid]
  IC50: < 20000 nM

## CCC(CCC(=O)O)(COC)c1cncc(Nc2ccc(F)cc2F)n1 (racemic) [compound 38, 4-(6-((2,4-difluorophenyl)amino)pyrazin-2-yl)-4-(methoxymethyl)hexanoic acid]
  IC50: < 10000 nM

## CCOC(=O)C(CC)(CCC(=O)O)c1csc(Nc2ccc(C)cc2)n1 (racemic) [Cmp. 3, 4-ethoxycarbonyl-4-[2-(4-methylanilino)thiazol-4-yl]hexanoic acid]
  IC50: < 20000 nM

## CCOC(=O)C(CC)(CCC(=O)O)c1csc(Nc2ccc(Cl)cc2Cl)n1 (racemic) [Cmp. 14a, 4-[2-(2,4-dichloroanilino)thiazol-4-yl]-4-ethoxycarbonyl-hexanoic acid]
  IC50: < 1000 nM

## CCOC(=O)C(CC)(CCC(=O)O)c1csc(Nc2ccccc2O)n1 (racemic) [Cmp. 1, 4-ethoxycarbonyl-4-[2-(2-hydroxyanilino)thiazol-4-yl]hexanoic acid]
  IC50: < 1000 nM

## CCC(CC)(CCC(=O)O)c1nc(Nc2ccc(Cl)cc2Cl)sc1C [Cmp. 24, 4-[2-(2,4-dichloroanilino)-5-methyl-thiazol-4-yl]-4-ethyl-hexanoic acid]
  IC50: < 1000 nM

## CCOC(=O)C(CC)(CCC(=O)O)c1nc(Nc2ccc(Cl)cc2Cl)sc1Br (racemic) [Cmp. 14b, 4-[5-bromo-2-(2,4-dichloroanilino)thiazol-4-yl]-4-ethoxycarbonyl-hexanoic acid]
  IC50: < 1000 nM

## CCOC(=O)C(CC)(CCC(=O)O)c1csc(Nc2ccc(F)cc2F)n1 (racemic) [Cmp. 6, 4-[2-(2,4-difluoroanilino)thiazol-4-yl]-4-ethoxycarbonyl-hexanoic acid]
  IC50: < 10000 nM

## CCC(CC)(CCC(=O)O)c1csc(Nc2ccc(C)cc2)n1 [Cmp. 2, 4-ethyl-4-[2-(4-methylanilino)thiazol-4-yl]hexanoic acid]
  IC50: < 100000 nM

## CCC(CC)(CCC(=O)O)c1nc(Nc2ccc(F)cc2F)sc1Br [Cmp. 22b, 4-[5-bromo-2-(2,4-difluoroanilino)thiazol-4-yl]-4-ethyl-hexanoic acid]
  IC50: < 1000 nM

## CCC(CC)(CCC(=O)O)c1csc(Nc2cccc(OC)c2)n1 [Cmp. 9, 4-ethyl-4-[2-(3-methoxyanilino)thiazol-4-yl]hexanoic acid]
  IC50: < 10000 nM

## CCC(CC)(CCC(=O)O)c1csc(-c2ccccc2)n1 [compound 30, 4-ethyl-4-(2-phenylthiazol-4-yl)hexanoic acid]
  IC50: < 10000 nM

## CCOC(=O)C(CC)(CCC(=O)O)c1cncc(Nc2ccccc2OC)n1 (racemic) [Cmp. 17, 4-ethoxycarbonyl-4-[6-(2-methoxyanilino)pyrazin-2-yl]hexanoic acid]
  IC50: < 1000 nM

## CCOC(=O)C(CCC(=O)O)(CC1CC1)c1cncc(Nc2ccc(C)cc2)n1 (racemic) [compound 36, 4-(cyclopropylmethyl)-5-ethoxy-5-oxo-4-(6-(p-tolylamino)pyrazin-2-yl)pentanoic acid]
  IC50: < 10000 nM

## CCC(CC)(CCC(=O)O)c1nc(Nc2ccccc2O)sc1C [Cmp. 10, 4-ethyl-4-[2-(2-hydroxyanilino)-5-methyl-thiazol-4-yl]hexanoic acid]
  IC50: < 1000 nM

## CCC(CCC(=O)O)(C(=O)OC1(C)CC1)c1cncc(Nc2ccc(F)cc2F)n1 (racemic) [compound 39, 4-(6-((2,4-difluorophenyl)amino)pyrazin-2-yl)-4-((1-methylcyclopropoxy)carbonyl)hexanoic acid]
  IC50: < 1000 nM

## CCC(CC)(CCC(=O)O)c1nnc(Nc2ccc(C)cc2)o1 [compound 33, 4-ethyl-4-(5-(p-tolylamino)-1,3,4-oxadiazol-2-yl)hexanoic acid]
  IC50: < 10000 nM

## CCOC(=O)C(CC)(CCC(=O)O)c1nc(Nc2ccccc2Cl)sc1Cl (single isomer, unassigned) [27 (enantiomer 1)]
  IC50: < 1000 nM
